Results from PubChem BioAssay (NCI).
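1) Cells in 96-well plates. 2) Compound, 48 h, 5 concentrations. 3) Linear interpolation between surrounding doses. 4) Unreached endpoint = highest concentration. Here, GI50 denotes the concentration required for 50% inhibition of growth. TGI denotes the concentration required for complete inhibition of growth.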

test system: EKVX NSCLC; experiment: DTP human tumour cell line panel, 48 h

| SMILES | GI50 | TGI |
| --- | --- | --- |
| COc1cc2ncnc(Nc3ccc(C)c(O)c3)c2cc1OC | 6.3 µM | > 25 µM |
| COC(=O)C1=CNC=C(C(=O)OC)C1C1=CC(=O)C(C)=CC1=O | 16.3 µM | 30 µM |
| C=C1C(=O)O[C@H]2[C@H]1CC/C(COC(=O)C(=O)c1cn(Cc3ccccc3)c3ccccc13)=C\CC[C@@]1(C)O[C@@H]21 | 2.06 µM | 5.96 µM |
| COc1ccc(/C=C/c2ccnc3ccccc23)c(OC)c1 | – | > 10 µM |
| Cc1ccc(C(=O)CN(/C=C/C(=O)C(F)(F)F)c2ccc(S(N)(=O)=O)cc2)cc1 | 55.2 µM | > 100 µM |
| Clc1nc(Cl)c(Cl)c(-c2ccccc2)n1 | – | 30.7 µM |
| COC(C(O)CO)C(O)C(O)C(=O)NNc1ccccc1 (configuration not stated) | – | > 100 µM |
| NS(=O)(=O)c1ccc(NC2(C(=O)O)CCCC2)cc1 | – | > 100 µM |
| O=C(O)C1OC(n2cc(F)c(=O)[nH]c2=O)CC1O (configuration not stated) | – | > 100 µM |
| N=C1C(c2nc3ccccc3s2)=C(O)CN1c1cc(C(F)(F)F)ccc1Cl | 62.7 µM | > 100 µM |
| CC(=O)CSCc1ccccn1 | – | > 100 µM |
| COc1ccccc1CNCCCN1C(=O)c2ccc3c4c(ccc(c24)C1=O)C(=O)N(CCCOCCCCOCCCN)C3=O | 1.19 µM | 2.52 µM |
| CCOC(=O)[C@@H](N)CCC(=O)N[C@@H](CSCc1ccccc1)C(=O)N[C@@H](C(=O)OCC)c1ccccc1 | 25.2 µM | > 73.3 µM |
| COc1ccc(Nc2c3ccccc3nc3occc23)cc1 | 18.1 µM | > 52.7 µM |
| CC(=O)/C(C)=N/NC(=O)c1ccccc1O | > 100 µM | > 100 µM |
| NS(=O)(=O)c1ccc(N=Nc2c(O)[nH]c3ccc(-c4cnco4)cc23)cc1 | > 25 µM | > 25 µM |
| COc1cc2c3c(n(CCCNC(=O)OCC4c5ccccc5-c5ccccc54)c(=O)c2cc1OC)-c1cc2c(cc1/C3=C\CCNC(=O)OCC1c3ccccc3-c3ccccc31)OCO2 | > 50 µM | > 50 µM |
| N#C/C(=C1C=C(Br)/C(=N\O)C=C\1Cl)c1cccc2ccccc12 | – | 23.3 µM |
| CN1c2ccc(Cl)cc2C(=O)NC1c1ccc([N+](=O)[O-])s1 (configuration not stated) | – | 57.8 µM |

test system: SN12C renal; experiment: DTP human tumour cell line panel, 48 h

| SMILES | GI50 | TGI |
| --- | --- | --- |
| CN1CCN(CCCOc2ccc3nc(Nc4ccc(Cl)c(C(F)(F)F)c4)ccc3c2)CC1 | 13.8 µM | 30.2 µM |
| CC(C)n1nc(-c2cc3cc(O)ccc3[nH]2)c2c(N)ncnc21 | 0.175 µM | 6.43 µM |
| CCCCC(O)(c1ccc(Cl)cc1)C(CN1CCOCC1)c1ccc(Cl)cc1 (configuration not stated) | 12.6 µM | 28.5 µM |
| Cc1cc(C(=O)Nc2ncc(Cc3cccc(C(F)(F)F)c3)s2)c2ccccc2n1 | 3.62 µM | > 100 µM |
| O=C(N/N=C/c1ccc(Cl)cc1)c1ccc(C(F)(F)F)nc1Nc1cccc(C(F)(F)F)c1 | 1.78 µM | 10.6 µM |
| COc1cc2ncnc(Nc3ccc(C)c(O)c3)c2cc1OC | 6.46 µM | > 25 µM |
| O=C1OC(C(O)CO)C(=O)C1=O (configuration not stated) | 2530 µM | 7090 µM |
| COC(=O)C1=CNC=C(C(=O)OC)C1C1=CC(=O)C(C)=CC1=O | 13 µM | 25.8 µM |
| C=C1C(=O)O[C@H]2[C@H]1CC/C(COC(=O)C(=O)c1cn(Cc3ccccc3)c3ccccc13)=C\CC[C@@]1(C)O[C@@H]21 | 2.3 µM | 6.03 µM |
| COc1ccc(/C=C/c2ccnc3ccccc23)c(OC)c1 | – | > 10 µM |
| Cc1ccc(C(=O)CN(/C=C/C(=O)C(F)(F)F)c2ccc(S(N)(=O)=O)cc2)cc1 | > 100 µM | > 100 µM |
| Clc1nc(Cl)c(Cl)c(-c2ccccc2)n1 | – | 53.9 µM |
| COC(C(O)CO)C(O)C(O)C(=O)NNc1ccccc1 (configuration not stated) | – | > 100 µM |
| NS(=O)(=O)c1ccc(NC2(C(=O)O)CCCC2)cc1 | – | > 100 µM |
| O=C(O)C1OC(n2cc(F)c(=O)[nH]c2=O)CC1O (configuration not stated) | – | > 100 µM |
| N=C1C(c2nc3ccccc3s2)=C(O)CN1c1cc(C(F)(F)F)ccc1Cl | 15.5 µM | 69.6 µM |
